Results as given in article PMC9516332 (Frontiers in Oncology, 2022).
Read-outs that look alike come from different tables or passages of the source.

Experiments:
134 cancer cell lines [1] = system: 134 cancer cell lines
[2] = target: panel of 255 wild-type kinases (Homo sapiens, UniProt Q9Y463); assay: Kinase panel profiling at 1 µmol/L (MSA or IMAP), percentage inhibition; format: biochemical; conditions: kinase DYRK1B; 1 µmol/L single concentration; read-out: %-inhibition at 1 µmol/L, DYRK1B
[3] = target: T1, panel of 255 wild-type kinases (Homo sapiens, UniProt Q96PF2); assay: as above; format: biochemical; conditions: kinase TSSK2; 1 µmol/L single concentration; read-out: %-inhibition at 1 µmol/L, TSSK2
T1 sequence (Q96PF2 1-358): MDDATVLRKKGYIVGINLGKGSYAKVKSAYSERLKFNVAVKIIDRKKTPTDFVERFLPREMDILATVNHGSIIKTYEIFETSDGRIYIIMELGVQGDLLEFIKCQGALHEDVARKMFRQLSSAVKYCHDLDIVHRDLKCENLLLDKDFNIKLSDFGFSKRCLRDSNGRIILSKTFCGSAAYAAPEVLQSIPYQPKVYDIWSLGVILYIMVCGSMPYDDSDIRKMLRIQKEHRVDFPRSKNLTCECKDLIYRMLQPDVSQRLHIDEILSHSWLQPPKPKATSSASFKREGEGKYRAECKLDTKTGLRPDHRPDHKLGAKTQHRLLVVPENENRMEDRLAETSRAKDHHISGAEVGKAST

[4] = target: panel of 255 wild-type kinases (Homo sapiens, UniProt P08581); assay: as above; format: biochemical; conditions: MET; 1 µmol/L single concentration
[5] = target: panel of 255 wild-type kinases (Homo sapiens, UniProt P31749); assay: as above; format: biochemical; conditions: AKT1 kinase assay; 1 µmol/L single concentration; read-out: %-inhibition AKT1
134 cancer cell lines [6] = assay: Cell viability assay (ATPlite, 72 hours), IC50 on cancer cell line panel

Work on CN1CCN(c2ccc(C(=O)Nc3n[nH]c4ccc(Cc5cc(F)cc(F)c5)cc34)c(NC3CCOCC3)c2)CC1 [entrectinib] yielded an IC50 (134 cancer cell lines [1]) of 7.82 µM, an inhibition at 1 µM [2] of 6% and an inhibition at 1 µM [3] of -7%. For the same compound, the inhibition at 1 µM [4] was 24%, the inhibition at 1 µM [5] was -9% and the IC50 (134 cancer cell lines [6]; HEC-6, read-out: IC50 in cell proliferation assay, HEC-6 cell line (EGFR p.A289V)) was 6.83 µM. For the same compound, the IC50 (134 cancer cell lines [6]; Homo sapiens, 769-P, read-out: IC50 in cell proliferation assay, cell line 769-P) was 6.69 µM, the IC50 (134 cancer cell lines [6]; Homo sapiens, 786-0, read-out: IC50 in cell proliferation assay, cell line 786-O) was 5.12 µM and the IC50 (134 cancer cell lines [6]; Homo sapiens, A 172, read-out: IC50 in cell proliferation assay, cell line A-172) was 4.96 µM. It also gave an IC50 (134 cancer cell lines [6]; Homo sapiens, A204, read-out: IC50 in cell proliferation assay, cell line A-204) of 5.98 µM, an IC50 (134 cancer cell lines [6]; Homo sapiens, A498, read-out: IC50 in cell proliferation assay, cell line A-498) of 7.97 µM and an IC50 (134 cancer cell lines [6]; Homo sapiens, A549, read-out: IC50 in cell proliferation assay, cell line A-549) of 8.78 µM. For the same compound, the IC50 (134 cancer cell lines [6]; Homo sapiens, A704, read-out: IC50 in cell proliferation assay, cell line A-704) was 6.87 µM, the IC50 (134 cancer cell lines [6]; Homo sapiens, A-375, read-out: IC50 in cell proliferation assay, cell line A-375 (BRAF p.V600E)) was 5.84 µM and the IC50 (134 cancer cell lines [6]; Homo sapiens, A-427, read-out: IC50 in cell proliferation assay, cell line A-427) was 3.49 µM. The IC50 (134 cancer cell lines [6]; Homo sapiens, ACHN, read-out: IC50 in cell proliferation assay, cell line ACHN) was 5.79 µM, the IC50 (134 cancer cell lines [6]; Homo sapiens, AN3-CA, read-out: IC50 in cell proliferation assay, cell line AN3-CA (FGFR2 p.N549K)) was 3.78 µM and the IC50 (134 cancer cell lines [6]; Homo sapiens, ASPC1, read-out: IC50 in cell proliferation assay, cell line AsPC-1) was 7.99 µM. The IC50 (134 cancer cell lines [6]; Homo sapiens, AU565, read-out: IC50 in cell proliferation assay, cell line AU565 (ERBB2 amplification)) was 8.63 µM, the IC50 (134 cancer cell lines [6]; Homo sapiens, BT-20, read-out: IC50 in cell proliferation assay, cell line BT-20) was 10.7 µM and the IC50 (134 cancer cell lines [6]; Homo sapiens, BT-474, read-out: IC50 in cell proliferation assay, cell line BT-474 (ERBB2 amplification)) was 6.15 µM. It also gave an IC50 (134 cancer cell lines [6]; Homo sapiens, BT-549, read-out: IC50 in cell proliferation assay, cell line BT-549) of 7.41 µM, an IC50 (134 cancer cell lines [6]; Homo sapiens, BXPC-3, read-out: IC50 in cell proliferation assay, cell line BxPC-3) of 6.09 µM and an IC50 (134 cancer cell lines [6]; Homo sapiens, C-33-A, read-out: IC50 in cell proliferation assay, cell line C-33 A) of 5.23 µM. It also gave an IC50 (134 cancer cell lines [6]; Homo sapiens, CAL-27, read-out: IC50 in cell proliferation assay, cell line CAL-27) of 5.15 µM, an IC50 (134 cancer cell lines [6]; Homo sapiens, CCF-STTG1, read-out: IC50 in cell proliferation assay, cell line CCF-STTG1) of 10.7 µM and an IC50 (134 cancer cell lines [6]; Homo sapiens, CCRF-CEM, read-out: IC50 in cell proliferation assay, cell line CCRF-CEM) of 9.03 µM. The IC50 (134 cancer cell lines [6]; Homo sapiens, COLO 205, read-out: IC50 in cell proliferation assay, cell line COLO 205 (BRAF p.V600E)) was 7.72 µM, the IC50 (134 cancer cell lines [6]; Homo sapiens, COLO-829, read-out: IC50 in cell proliferation assay, cell line COLO 829 (BRAF p.V600E)) was 8.95 µM and the IC50 (134 cancer cell lines [6]; Homo sapiens, DLD-1, read-out: IC50 in cell proliferation assay, cell line DLD-1) was 10.5 µM. For the same compound, the IC50 (134 cancer cell lines [6]; Homo sapiens, DU-4475, read-out: IC50 in cell proliferation assay, cell line DU4475 (BRAF p.V600E)) was 8.22 µM, the IC50 (134 cancer cell lines [6]; Homo sapiens, Daoy, read-out: IC50 in cell proliferation assay, cell line Daoy) was 5.1 µM and the IC50 (134 cancer cell lines [6]; Homo sapiens, DoTc2-4510, read-out: IC50 in cell proliferation assay, cell line DoTc2 4510) was 4.69 µM. The IC50 (134 cancer cell lines [6]; Homo sapiens, EOL1, read-out: IC50 in cell proliferation assay, cell line EoL-1 (FIP1L1-PDGFRA)) was 0.512 µM, the IC50 (134 cancer cell lines [6]; Homo sapiens, FaDu, read-out: IC50 in cell proliferation assay, cell line FaDu) was 5.64 µM and the IC50 (134 cancer cell lines [6]; Homo sapiens, G-361, read-out: IC50 in cell proliferation assay, cell line G-361 (BRAF p.V600E)) was 4.67 µM. The IC50 (134 cancer cell lines [6]; Homo sapiens, HCC827, read-out: IC50 in cell proliferation assay, cell line HCC827 (EGFR exon19del)) was 2.98 µM, the IC50 (134 cancer cell lines [6]; Homo sapiens, HCC4006, read-out: IC50 in cell proliferation assay, cell line HCC4006 (EGFR exon19del)) was 4.96 µM and the IC50 (134 cancer cell lines [6]; Homo sapiens, HCT-15, read-out: IC50 in cell proliferation assay, cell line HCT 15) was 7.64 µM. It also gave an IC50 (134 cancer cell lines [6]; Homo sapiens, HCT-116, read-out: IC50 in cell proliferation assay, cell line HCT 116) of 4.66 µM, an IC50 (134 cancer cell lines [6]; Homo sapiens, HEC-1, read-out: IC50 in cell proliferation assay, HEC-1 cell line) of 3.73 µM and an IC50 (134 cancer cell lines [6]; Homo sapiens, HEC-1B, read-out: IC50 in cell proliferation assay, HEC-1-B cell line (EGFR p.A864V)) of 2.24 µM. For the same compound, the IC50 (134 cancer cell lines [6]; Homo sapiens, HL-60, read-out: IC50 in cell proliferation assay, HL-60 cell line) was 5.68 µM, the IC50 (134 cancer cell lines [6]; Homo sapiens, HT, read-out: IC50 in cell proliferation assay, HT cell line) was 12 µM and the IC50 (134 cancer cell lines [6]; Homo sapiens, HT-1080, read-out: IC50 in cell proliferation assay, HT-1080 cell line) was 7.36 µM. It also gave an IC50 (134 cancer cell lines [6]; Homo sapiens, Hs746T, read-out: IC50 in cell proliferation assay, Hs 746.T cell line (MET exon14skip + amplification)) of 10.9 µM, an IC50 (134 cancer cell lines [6]; Homo sapiens, Hs-578T, read-out: IC50 in cell proliferation assay, Hs 578T cell line) of 7.05 µM and an IC50 (134 cancer cell lines [6]; Homo sapiens, HuTu80, read-out: IC50 in cell proliferation assay, HuTu 80 cell line) of 3.57 µM. For the same compound, the IC50 (134 cancer cell lines [6]; Homo sapiens, J82, read-out: IC50 in cell proliferation assay, J82 cell line) was 7.16 µM, the IC50 (134 cancer cell lines [6]; Homo sapiens, Jurkat E6.1, read-out: IC50 in cell proliferation assay, Jurkat E6.1 cell line) was 8.24 µM and the IC50 (134 cancer cell lines [6]; Homo sapiens, K562, read-out: IC50 in cell proliferation assay, K-562 cell line) was 5.82 µM. The IC50 (134 cancer cell lines [6]; Homo sapiens, KATO III, read-out: IC50 in cell proliferation assay, KATO III cell line (FGFR2 amplification)) was 1.43 µM, the IC50 (134 cancer cell lines [6]; Homo sapiens, KG-1, read-out: IC50 in cell proliferation assay, KG-1 cell line (FGFR1OP2-FGFR1)) was 1.53 µM and the IC50 (134 cancer cell lines [6]; Homo sapiens, KLE, read-out: IC50 in cell proliferation assay, KLE cell line) was 4.33 µM. It also gave an IC50 (134 cancer cell lines [6]; Homo sapiens, KMS-11, read-out: IC50 in cell proliferation assay, KMS-11 cell line (FGFR3 p.Y373C)) of 4.82 µM, an IC50 (134 cancer cell lines [6]; Homo sapiens, KU812, read-out: IC50 in cell proliferation assay, Ku812 cell line) of 4.72 µM and an IC50 (134 cancer cell lines [6]; Homo sapiens, Kasumi 1, read-out: IC50 in cell proliferation assay, Kasumi-1 cell line (KIT p.N822K)) of 3.68 µM. For the same compound, the IC50 (134 cancer cell lines [6]; Homo sapiens, LC-2-ad, read-out: IC50 in cell proliferation assay, LC-2/ad cell line (CCDC6-RET)) was 1.81 µM, the IC50 (134 cancer cell lines [6]; Homo sapiens, LNCaP-Clone-FGC, read-out: IC50 in cell proliferation assay, LNCaP clone FGC cell line) was 10.9 µM and the IC50 (134 cancer cell lines [6]; Homo sapiens, LS174T, read-out: IC50 in cell proliferation assay, LS174T cell line) was 4.9 µM. The IC50 (134 cancer cell lines [6]; Homo sapiens, LS-411N, read-out: IC50 in cell proliferation assay, LS411N cell line (BRAF p.V600E)) was 9.55 µM, the IC50 (134 cancer cell lines [6]; Homo sapiens, LoVo, read-out: IC50 in cell proliferation assay, LoVo cell line) was 9.52 µM and the IC50 (134 cancer cell lines [6]; Homo sapiens, MCF7, read-out: IC50 in cell proliferation assay, MCF-7 cell line) was 3.83 µM. The IC50 (134 cancer cell lines [6]; Homo sapiens, MDA-MB-231, read-out: IC50 in cell proliferation assay, MDA-MB-231 cell line) was 4.59 µM, the IC50 (134 cancer cell lines [6]; Homo sapiens, MDA-MB-453, read-out: IC50 in cell proliferation assay, MDA-MB-453 cell line) was 11.5 µM and the IC50 (134 cancer cell lines [6]; Homo sapiens, MDA-MB-468, read-out: IC50 in cell proliferation assay, MDA-MB-468 cell line) was 11 µM. It also gave an IC50 (134 cancer cell lines [6]; Homo sapiens, MG-63, read-out: IC50 in cell proliferation assay, MG-63 cell line) of 3.8 µM, an IC50 (134 cancer cell lines [6]; Homo sapiens, MIA PaCa-2, read-out: IC50 in cell proliferation assay, MIA PaCa-2 cell line) of 5.16 µM and an IC50 (134 cancer cell lines [6]; Homo sapiens, MKN-45, read-out: IC50 in cell proliferation assay, MKN45 cell line (MET amplification)) of 11.8 µM.
